Results taken from US7713994B2 (Wyeth LLC, priority 2005, dated 2010).
Where two headings read alike, the source gives them in different places.

Experiments:
[1] = target: T1, cyclin B/CDK1 enzyme (Homo sapiens, UniProt P06493); assay: CDK1 ELISA kinase assay (phospho-Rb ser 795 detection); assay type: biochemical; conditions: In Vitro Enzyme Assays, read-out: CDK1 IC50
T1 construct: purchased New England BioLabs; host or cells: Sf9 insect cells, recombinant baculovirus
Procedure, shortened: (§1)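 Sf9-derived cyclin/CDK, 200 μM ATP, immobilized GST-Rb; 30° C/1 h. Detection: phospho-Ser795 Ab, HRP, TMB, OD450.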

[2] = system: LoVo; assay: Cytotoxicity assay (SRB), LoVo; assay type: cell-based; conditions: Homo sapiens, LoVo, 72 h, read-out: In Vitro Cellular Activity IC50 LOVO
Procedure, shortened: (§2)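 Protein staining with sulforhodamine B after cold TCA fixation served as the survival endpoint (A540, relative to untreated cells). Before staining, cells were incubated with compound at 37 °C, 7% CO2 for 3 days, or 6 days for BT474.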

[3] = system: BT474; assay: Cytotoxicity assay (SRB), BT474; assay type: cell-based; conditions: Homo sapiens, BT-474, 144 h, read-out: In Vitro Cellular Activity IC50 BT474
Procedure, shortened: as §2

[4] = system: MCF-7; assay: Cytotoxicity assay (SRB), MCF-7; assay type: cell-based; conditions: Homo sapiens, MCF7, 72 h, read-out: In Vitro Cellular Activity IC50 MCF-7
Procedure, shortened: as §2

[5] = system: HCT-116; assay: Cytotoxicity assay (SRB), HCT-116; assay type: cell-based; conditions: Homo sapiens, HCT-116, 72 h, read-out: In Vitro Cellular Activity IC50 HCT116
Procedure, shortened: as §2

[6] = target: T2, cyclin D1/cdk 4 enzyme (Homo sapiens, UniProt P11802); assay: CDK4 ELISA kinase assay (phospho-Rb ser 795 detection); assay type: biochemical; conditions: In Vitro Enzyme Assays, 200 μM ATP, read-out: CDK4 IC50
T2 construct: made in house; host or cells: Sf9 insect cells, recombinant baculovirus
Procedure, shortened: as §1

[7] = target: T3, cyclin E/CDK2 enzyme (Homo sapiens, UniProt P24941); assay: CDK2 ELISA kinase assay (phospho-Rb ser 795 detection); assay type: biochemical; conditions: In Vitro Enzyme Assays, read-out: CDK2 IC50
T3 construct: made in house; host or cells: Sf9 insect cells, recombinant baculovirus
Procedure, shortened: as §1

T2 sequence (P11802 whole entry, species assumed): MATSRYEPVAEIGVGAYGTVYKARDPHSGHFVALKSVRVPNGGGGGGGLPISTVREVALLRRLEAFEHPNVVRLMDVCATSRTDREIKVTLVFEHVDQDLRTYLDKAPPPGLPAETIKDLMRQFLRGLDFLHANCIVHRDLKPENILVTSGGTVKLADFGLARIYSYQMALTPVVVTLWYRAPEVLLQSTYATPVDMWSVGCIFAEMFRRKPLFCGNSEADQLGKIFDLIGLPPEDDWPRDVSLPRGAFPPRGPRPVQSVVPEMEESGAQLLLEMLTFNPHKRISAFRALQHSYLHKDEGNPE
T2 sequence (P24385 whole entry partner, species assumed): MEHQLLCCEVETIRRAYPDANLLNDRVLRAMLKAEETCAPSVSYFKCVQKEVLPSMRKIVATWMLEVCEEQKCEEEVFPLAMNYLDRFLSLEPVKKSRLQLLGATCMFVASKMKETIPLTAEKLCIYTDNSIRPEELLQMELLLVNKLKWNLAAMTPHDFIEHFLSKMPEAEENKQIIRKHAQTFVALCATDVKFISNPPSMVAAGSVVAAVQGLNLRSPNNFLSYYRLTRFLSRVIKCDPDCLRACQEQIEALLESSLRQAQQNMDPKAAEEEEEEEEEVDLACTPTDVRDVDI
T1 sequence (P06493 whole entry): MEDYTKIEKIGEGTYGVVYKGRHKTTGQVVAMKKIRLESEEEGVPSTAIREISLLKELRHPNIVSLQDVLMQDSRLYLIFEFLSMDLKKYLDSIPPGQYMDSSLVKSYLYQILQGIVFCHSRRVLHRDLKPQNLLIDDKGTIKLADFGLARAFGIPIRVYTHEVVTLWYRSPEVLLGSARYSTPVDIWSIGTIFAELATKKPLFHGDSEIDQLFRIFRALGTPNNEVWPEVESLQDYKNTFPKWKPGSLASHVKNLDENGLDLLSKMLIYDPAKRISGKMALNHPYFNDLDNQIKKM
T1 sequence (P14635 whole entry partner): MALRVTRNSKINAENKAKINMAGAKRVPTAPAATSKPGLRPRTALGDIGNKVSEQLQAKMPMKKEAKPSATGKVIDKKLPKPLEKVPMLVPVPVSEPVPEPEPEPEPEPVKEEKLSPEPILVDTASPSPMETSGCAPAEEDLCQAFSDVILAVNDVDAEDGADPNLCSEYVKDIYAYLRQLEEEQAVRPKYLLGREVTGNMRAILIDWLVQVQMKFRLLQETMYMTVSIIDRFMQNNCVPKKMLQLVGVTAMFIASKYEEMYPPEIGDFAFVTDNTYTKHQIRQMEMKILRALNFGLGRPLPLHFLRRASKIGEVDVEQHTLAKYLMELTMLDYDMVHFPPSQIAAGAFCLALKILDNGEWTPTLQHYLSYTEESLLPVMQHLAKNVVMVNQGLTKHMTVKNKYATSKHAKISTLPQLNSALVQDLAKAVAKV

Compound	IC50 [1]	melting point	IC50 [6]	IC50 [7]	IC50 ([2]; LoVo cells, SRB, three days)	IC50 ([3]; BT474 cells, SRB, 6 days)	IC50 ([4]; MCF-7 cells, SRB, three days)	IC50 ([5]; HCT116 cells, SRB, three days)	IC50 [2]	IC50 [3]	IC50 [4]	IC50 [5]
COc1ccc(CNC=C2C(=O)NCc3ccccc32)cc1O [Example 160, 4-[(3-Hydroxy-4-methoxy-benzylamino)-methylene]-1,4-dihydro-2H-isoquinoline-3-one]	> 50 µM	177 to 179 °C (dec.)	20.4 µM	31 µM	43 µM	> 50 µM	30 µM	> 50 µM	–	–	–	–
O=C1NCc2ccccc2C1=CNc1ccc(CN2CCCCC2)cc1 [Example 162, 4-[(4-Piperidin-1-ylmethyl-phenylamino)-methylene]-1,4-dihydro-2H-isoquinolin-3-one]	> 50 µM	188 to 189 °C (dec.)	18.6 µM	> 50 µM	9.2 µM	23 µM	3.9 µM	4.4 µM	–	–	–	–
O=C1NC(=O)c2ccc(I)cc2/C1=C/NCc1ccc(Cl)c(O)c1 [Example 165, (4Z)-4-{[(4-Chloro-3-hydroxybenzyl)amino]methylene}-6-iodoisoquinoline-′1,3(2H,4H)-dione]	> 50 µM	324 to 325 °C	0.2 µM	18.9 µM	> 50 µM	> 50 µM	> 50 µM	23 µM	–	–	–	–
O=C1NCc2ccccc2C1=CNc1ccc(CCN2CCCC2)cc1 [Example 170, 4-{[4-(2-Pyrrolidin-1-yl-ethyl)-phenylamino]-methylene}-1,4-dihydro-2H-isoquinolin-3-one]	> 50 µM	169 to 173 °C (dec.)	46.5 µM	> 50 µM	21 µM	27 µM	11 µM	6.2 µM	–	–	–	–
O=C1NC(=O)c2ccc(Br)cc2/C1=C/Nc1ccc(CCN2CCCC2)cc1 [Example 176, 6-Bromo-4-{[4-(2-pyrrolidin-1-yl-ethyl)-phenylamino]-methylene}-4H-isoquinolin-1,3-dione]	> 50 µM	212 to 214 °C (dec.)	1.3 µM	> 50 µM	4.5 µM	7.2 µM	3.8 µM	3.4 µM	–	–	–	–
COCC#Cc1ccc2c(c1)/C(=C/Nc1ccc(N3CCN(C)CC3)cc1)C(=O)NC2=O [Example 177, (4Z)-6-(3-Methoxyprop-1-ynyl)-4-({[4-(4-methylpiperazin-1-yl)phenyl]amino}-methylene)isoquinoline-1,3(2H,4H)-dione]	> 50 µM	209 to 210 °C	1.1 µM	> 50 µM	3.9 µM	3.9 µM	4.1 µM	3.1 µM	–	–	–	–
O=C1NC(=O)c2ccc(Br)cc2/C1=C/NCc1ccc(OC(F)F)c(O)c1 [Example 180]	> 50 µM	256 to 258 °C	0.07 µM	> 50 µM	6.2 µM	5.1 µM	15 µM	5.9 µM	–	–	–	–
CN1CCN(c2ccc(N/C=C3\C(=O)NC(=O)c4ccc(-c5ccc(-c6cccs6)s5)cc43)cc2)CC1 [Example 182, (4Z)-6-(2,2′-Bithien-5-yl)-4-({[4-(4-methylpiperazin-1-yl)phenyl]amino}methylene)-isoquinoline-1,3(2H,4H)-dione]	2.3 µM	204 to 205 °C	2.3 µM	> 50 µM	–	–	–	–	> 50 µM	17 µM	> 50 µM	> 50 µM
COC(=O)Nc1ccc(CN/C=C2\C(=O)NC(=O)c3ccc(Br)cc32)cc1OC(=O)OC [Example 184, 5-({[(Z)-(6-Bromo-1,3-dioxo-2,3-dihydroisoquinolin-4(1H)-′ylidene)methyl]amino}methyl)-2-[(methoxycarbonyl)amino]phenyl methyl carbonate]	> 50 µM	179 to 180 °C	6 µM	41.5 µM	20 µM	8.5 µM	50 µM	13 µM	–	–	–	–

The next lines start with results.

IC50 [1]	melting point	IC50 [6]	IC50 [7]	Compound	IC50 ([2]; LoVo cells, SRB, three days)	IC50 ([3]; BT474 cells, SRB, 6 days)	IC50 ([4]; MCF-7 cells, SRB, three days)	IC50 ([5]; HCT116 cells, SRB, three days)	IC50 [2]	IC50 [3]	IC50 [4]	IC50 [5]
> 50 µM	298 to 299 °C (dec.)	1.9 µM	> 50 µM	Cl.O=C1NC(=O)c2ccc(Br)cc2C1=NNc1ccc(CN2CCCCC2)cc1 [Example 144, 6-Bromo-4-[(4-piperidin-1-ylmethyl-phenyl)-hydrazono]-4H-isoquinoline-1,3-dione Hydrochloride]	3.2 µM	3.2 µM	3.2 µM	1.5 µM	–	–	–	–
> 50 µM	264 to 265 °C	0.1 µM	8.6 µM	CC(=O)Nc1ccc(CN/C=C2\C(=O)NC(=O)c3ccc(I)cc32)cc1OC(C)=O [Example 146, 2-(Acetylamino)-5-({[(Z)-(6-iodo-1,3-dioxo-2,3-dihydroisoquinolin-4(1H)-′ylidene)methyl]amino}methyl)phenyl acetate]	0.86 µM	0.49 µM	2.7 µM	0.66 µM	–	–	–	–
36.3 µM	164 to 168 °C (dec.)	0.06 µM	> 50 µM	O=C1NC(=O)c2ccc(-c3ccsc3)cc2C1=NNc1ccc(CN2CCCCC2)cc1 [Example 152, 4-[(4-Piperidin-1-ylmethyl-phenyl)-hydrazono]-6-thiophen-3-yl-4H-isoquinoline-1,3-dione]	6.6 µM	3.4 µM	6.2 µM	2.8 µM	–	–	–	–
> 50 µM	223 to 225 °C (dec.)	0.04 µM	> 50 µM	O=C1NC(=O)c2ccc(-c3ccoc3)cc2C1=NNc1ccc(CN2CCCCC2)cc1 [Example 156, 6-Furan-3-yl-4-[(4-piperidin-1-ylmethyl-phenyl)-hydrazono]-4H-isoquinoline-1,3-dione]	6.4 µM	2.6 µM	1.5 µM	2.5 µM	–	–	–	–
> 50 µM	179 to 180 °C	0.04 µM	> 50 µM	COCCOc1ccc(CN/C=C2\C(=O)NC(=O)c3ccc(Br)cc32)cc1O [Example 158]	30 µM	28 µM	> 50 µM	32 µM	–	–	–	–
33.2 µM	169 to 170 °C	2.3 µM	> 50 µM	CN1CCN(c2ccc(N/C=C3\C(=O)NC(=O)c4ccc(C#Cc5ccccc5)cc43)cc2)CC1 [Example 171, (4Z)-4-({[4-(4-Methylpiperazin-1-yl)phenyl]amino}methylene)-6-(phenylethynyl)-isoquinoline-1,3(2H,4H)-dione]	9.7 µM	5.1 µM	3 µM	1.2 µM	–	–	–	–
23.6 µM	155 to 156 °C	23.6 µM	> 50 µM	COc1ccc(C#Cc2ccc3c(c2)/C(=C/Nc2ccc(N4CCN(C)CC4)cc2)C(=O)NC3=O)cc1 [Example 172, (4Z)-6-[(4-Methoxyphenyl)ethynyl]-4-({[4-(4-methylpiperazin-1-yl)phenyl]amino}-methylene)isoquinoline-1,3(2H,4H)-dione]	> 50 µM	17 µM	> 50 µM	8.7 µM	–	–	–	–
1.7 µM	193 to 194 °C	2.3 µM	3.3 µM	CN1CCN(c2ccc(N/C=C3\C(=O)NC(=O)c4ccc(C#Cc5ccsc5)cc43)cc2)CC1 [Example 187, (4Z)-4-({[4-(4-Methylpiperazin-1-yl)phenyl]amino}methylene)-6-(thien-3-ylethynyl)-isoquinoline-1,3(2H,4H)-dione]	8.5 µM	2.9 µM	3 µM	1.1 µM	–	–	–	–
24.2 µM	289 to 290 °C	33.2 µM	39.7 µM	CN1CCN(c2ccc(N/C=C3\C(=O)NC(=O)c4ccc(NS(=O)(=O)c5ccccc5)cc43)cc2)CC1 [Example 188, 1,2,3,4-Tetrahydroisoquinolin-6-yl]benzenesulfonamide′N-[(4Z)-4-({[4-(4-methylpiperazin-1-yl)phenyl]amino}methylene)-1,3-dioxo]	11 µM	3.3 µM	12 µM	2.2 µM	–	–	–	–
